Test results from patent publication US20150208661A1, “METHOD FOR PREPARING BROMINE BASED BIOCIDAL AQUEOUS COMPOSITIONS” (BROMINE COMPOUNDS LTD., priority 2012, published 2015).

Legend:
[1] = system: Pseudomonas aeruginosa (ATCC 15442); test: Biocidal activity against simulated biofilm system (alginate beads with entrapped bacteria); assay type: cell-based; settings: pH 8
Source text: A biofilm simulation system, alginate beads, developed by the Biofilm Bozeman Institute Montana (Grobe, K. J, Zahller, J and Stewart P. S., 2002 in “Role of dose concentration in biocide efficacy against Pseudomonas aeruginosa Biofilms”, J. Industrial Microbiology & Biotechnology, vol. 29, pp 10-15), was used in order to evaluate the efficacy of the biocide solution against biofilm.
The biofilm simulation was created by entrapping bacteria in alginate gel beads. A plate of R2A agar was streaked with Pseudomonas aeruginosa (ATCC 15442) and incubated at 35° C. overnight. Buffer phosphate at pH 7.2 was used to scrap off the bacteria from the agar plate and to create a suspension. The bacterial suspension was mixed with an equal volume of an aqueous 4% sodium alginate solution, to make a final 2% alginate solution. The alginate and bacterial slurry were placed in a 50 ml syringe attached to a gauge needle, connected to a compressed air tank, allowing the syringe to be pressurized. At 20 psig pressure a stream of small drops was forced out and dropped into a stirred solution of 50 mM CaCl2. The Ca^+2 cross linked the alginate, and semi solid beads with entrapped bacterial cells were formed. The beads were allowed to stir in the CaCl2 solution for about 20 minutes, and then rinsed in a dilute 5 mM CaCl2 solution. Several flasks containing 100 beads each were incubated overnight at 35° C. on a rotating shaker in a buffer solution (at pH 8) with 5 mM addition of CaCl2 to maintain the beads structure. The resulting beads diameter was about 2 mm.
At the beginning of the experiment, the supernatant of the beads buffer suspension containing 5 mM CaCl2 was decanted and replaced by the 100 ml biocide solution with the required concentration (at pH 8). After different interval contact times, 10 beads were removed and placed in a 5 g/l sodium thiosulfate solution containing 50 mM sodium citrate. The sodium citrate was used to dissolve the alginate gel and release the bacteria into the solution. The neutralizer-citrate solution was placed in the refrigerator for 2 hours, than diluted and placed on R2A agar plates using pour plate technique. The plates were incubated at 35° C. for 24-48 hours and counted. The efficacy and toxicity of the neutralizer were checked as well as a control experiment without biocide addition. Four concentrations of active chlorine (0.5, 1, 2.5 and 5 ppm) were tested at four different contact times (5, 15, 30, and 60 min). Table 1-2 describe the surviving colony forming units (CFU) of the bacteria after different biocides treatment at different contact times.

[2] = system: Inoculum of bacteria (activated sludge taken from domestic waste water treatment plant in Haifa); test: Biocidal efficacy under different TOC loading; assay type: cell-based; settings: 30 min, pH 7
Method: Inoculum of bacteria (activated sludge taken from domestic waste water treatment plant in Haifa), R2A agar for general counting, and Tryptone were employed. The biocidal efficacy of the antifouling composition at different organic loads of 0, 10, 30 and 50 ppm TOC, was examined under different biocidal concentrations (5 and 10 ppm) at pH 7.
1) 1 ml of inoculum with the appropriate biocide concentration (5, 10 ppm) was added to tryptone solutions, 100 ml each, with different concentrations of TOC (0, 10, 30 and 50 ppm). […] The result stands for the bacteria count at zero time. 3) After 30 min. of shaking (100 rpm), 1 ml of each sample was transferred to a tube filled with 9 ml of the neutralization solution […].
An aliquot of 1 ml was taken from this solution and added to another tube containing 9 ml of buffer solution. The solution was mixed under vortex. This operation was repeated for 4 more times.
4) 1 ml from the two lowest dilutions was inoculated on a R2A agar (by the pour plate method). 5) After the plates were incubated at 25° C. for 5-7 days, the bacteria count was recorded.

Question: For `OCl` [NaOCl, sodium hypochlorite], which “survival of bacteria (CFU)” value ([1]; biocide 0.5 ppm as Cl2, contact time 0 min) is on record?
Answer: The value was 1.20E+07 CFU.

Question: What about the “survival of bacteria (CFU)” value ([1]; biocide 0.5 ppm as Cl2, contact time 5 min) of the same molecule?
Answer: The value was 6.73E+06 CFU.

Question: What about the “survival of bacteria (CFU)” value ([1]; biocide 0.5 ppm as Cl2, contact time 15 min) of the same molecule?
Answer: Its value is 6.48E+06 CFU.

Question: What about the “survival of bacteria (CFU)” value ([1]; biocide 0.5 ppm as Cl2, contact time 30 min) of the same molecule?
Answer: Its value is 6.53E+06 CFU.

Question: And the “survival of bacteria (CFU)” value ([1]; biocide 0.5 ppm as Cl2, contact time 60 min)?
Answer: Its value is 4.08E+06 CFU.

Question: And the “survival of bacteria (CFU)” value ([1]; biocide 1 ppm as Cl2, contact time 0 min)?
Answer: Its value is 1.20E+07 CFU.

Question: And the “survival of bacteria (CFU)” value ([1]; biocide 1 ppm as Cl2, contact time 5 min)?
Answer: Its value is 7.25E+06 CFU.

Question: And the “survival of bacteria (CFU)” value ([1]; biocide 1 ppm as Cl2, contact time 15 min)?
Answer: The value was 4.18E+06 CFU.

Question: What about the “survival of bacteria (CFU)” value ([1]; biocide 1 ppm as Cl2, contact time 30 min) of the same molecule?
Answer: Its value is 4.28E+06 CFU.

Question: And the “survival of bacteria (CFU)” value ([1]; biocide 1 ppm as Cl2, contact time 60 min)?
Answer: Its value is 1.81E+06 CFU.

Question: And the “survival of bacteria (CFU)” value ([1]; biocide 2.5 ppm as Cl2, contact time 0 min)?
Answer: Its value is 1.20E+07 CFU.

Question: And the “survival of bacteria (CFU)” value ([1]; biocide 2.5 ppm as Cl2, contact time 5 min)?
Answer: The value was 6.40E+06 CFU.

Question: What about the “survival of bacteria (CFU)” value ([1]; biocide 2.5 ppm as Cl2, contact time 15 min) of the same molecule?
Answer: The value was 3.10E+06 CFU.

Question: And the “survival of bacteria (CFU)” value ([1]; biocide 2.5 ppm as Cl2, contact time 30 min)?
Answer: The value was 8.28E+05 CFU.

Question: What about the “survival of bacteria (CFU)” value ([1]; biocide 2.5 ppm as Cl2, contact time 60 min) of the same molecule?
Answer: Its value is 9.38E+04 CFU.

Question: And the “survival of bacteria (CFU)” value ([1]; biocide 5 ppm as Cl2, contact time 0 min)?
Answer: Its value is 1.20E+07 CFU.

Question: What about the “survival of bacteria (CFU)” value ([1]; biocide 5 ppm as Cl2, contact time 5 min) of the same molecule?
Answer: The value was 4.55E+06 CFU.

Question: And the “survival of bacteria (CFU)” value ([1]; biocide 5 ppm as Cl2, contact time 15 min)?
Answer: Its value is 7.03E+05 CFU.

Question: And the “survival of bacteria (CFU)” value ([1]; biocide 5 ppm as Cl2, contact time 30 min)?
Answer: Its value is 2.70E+03 CFU.

Question: What about the “survival of bacteria (CFU)” value ([1]; biocide 5 ppm as Cl2, contact time 60 min) of the same molecule?
Answer: Its value is 1.00 CFU.

Question: What about the “% kill” value ([2]; biocide 5 ppm, TOC 0 ppm) of the same molecule?
Answer: The value was 96.9%.

Question: What about the “% kill” value ([2]; biocide 5 ppm, TOC 10 ppm) of the same molecule?
Answer: The value was 86.0%.

Question: What about the “% kill” value ([2]; biocide 5 ppm, TOC 30 ppm) of the same molecule?
Answer: The value was 30.6%.

Question: And the “% kill” value ([2]; biocide 5 ppm, TOC 50 ppm)?
Answer: Its value is 30.6%.

Question: What about the “% kill” value ([2]; biocide 10 ppm, TOC 0 ppm) of the same molecule?
Answer: The value was 99.9%.

Question: And the “% kill” value ([2]; biocide 10 ppm, TOC 10 ppm)?
Answer: The value was 98.8%.

Question: And the “% kill” value ([2]; biocide 10 ppm, TOC 30 ppm)?
Answer: Its value is 95.4%.

Question: What about the “% kill” value ([2]; biocide 10 ppm, TOC 50 ppm) of the same molecule?
Answer: Its value is 88.3%.
